Experimental data from ChEMBL document CHEMBL1201862, “PubChem BioAssay data set” (2004).
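These data come from cells grown in 96-well plates and exposed to compound for 48 hours at five concentrations. Here, GI50 denotes the concentration required for 50% inhibition of growth.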 The source made the active and inactive calls. Cut-off read from the data, not from the text of the source: active = GI50 up to about 1.1 µM and inactive = higher.

Columns and labels:
Experiment in all cases: DTP human tumour cell line panel, 48 h
SNB-75 = test system: SNB-75
KM12 = test system: KM12
HT-29 = test system: HT-29
SF-295 = test system: SF-295
K562 = test system: K562
ACHN = test system: ACHN
M14 = test system: M14
SF-539 = test system: SF-539
UO-31 = test system: UO-31
A549 = test system: A549
SK-MEL-2 = test system: SK-MEL-2
SW-620 = test system: SW-620
OVCAR-4 = test system: OVCAR-4
HOP-62 = test system: HOP-62
CCRF-CEM = test system: CCRF-CEM
RPMI-8226 = test system: RPMI-8226
SK-OV-3 = test system: SK-OV-3
SK-MEL-28 = test system: SK-MEL-28

| Compound | GI50 (SNB-75) | GI50 (KM12) | GI50 (HT-29) | GI50 (SF-295) | GI50 (K562) | GI50 (ACHN) | GI50 (M14) | GI50 (SF-539) | GI50 (UO-31) | GI50 (A549) | GI50 (SK-MEL-2) | GI50 (SW-620) | GI50 (OVCAR-4) | GI50 (HOP-62) | GI50 (CCRF-CEM) | GI50 (RPMI-8226) | GI50 (SK-OV-3) | GI50 (SK-MEL-28) |
| --- | --- | --- | --- | --- | --- | --- | --- | --- | --- | --- | --- | --- | --- | --- | --- | --- | --- | --- |
| COC(=O)CCC1CCc2c(OC)ccc(OC)c2C1=O (stereo unspecified) | > 100 µM (inactive) | > 100 µM (inactive) | > 100 µM (inactive) | > 100 µM (inactive) | > 100 µM (inactive) | > 100 µM (inactive) | > 100 µM (inactive) | > 100 µM (inactive) | > 100 µM (inactive) | > 100 µM (inactive) | > 100 µM (inactive) | > 100 µM (inactive) | > 100 µM (inactive) | > 100 µM (inactive) | > 100 µM (inactive) | > 100 µM (inactive) | > 100 µM (inactive) | > 100 µM (inactive) |
| Cc1nc2ccccc2c(=O)n1NC(=S)Nc1cccc(Cl)c1 | 72.9 µM (inactive) | > 100 µM (inactive) | > 100 µM (inactive) | > 100 µM (inactive) | > 100 µM (inactive) | > 100 µM (inactive) | > 100 µM (inactive) | > 100 µM (inactive) | > 100 µM (inactive) | > 100 µM (inactive) | > 100 µM (inactive) | > 100 µM (inactive) | > 100 µM (inactive) | > 100 µM (inactive) | > 100 µM (inactive) | > 100 µM (inactive) | > 100 µM (inactive) | > 100 µM (inactive) |
| [N-]=[N+]=NC1C2CC3CC(C2)CC1C3 (stereo unspecified) | > 100 µM (inactive) | > 100 µM (inactive) | > 100 µM (inactive) | > 100 µM (inactive) | > 100 µM (inactive) | > 100 µM (inactive) | > 100 µM (inactive) | > 100 µM (inactive) | > 100 µM (inactive) | > 100 µM (inactive) | > 100 µM (inactive) | > 100 µM (inactive) | > 100 µM (inactive) | > 100 µM (inactive) | > 100 µM (inactive) | > 100 µM (inactive) | > 100 µM (inactive) | > 100 µM (inactive) |
| O=C(Nc1ccc(S(=O)(=O)N[C@@H](C(=O)O)c2ccccc2)cc1)c1ccc(F)cc1 | > 100 µM (inactive) | > 100 µM (inactive) | > 100 µM (inactive) | > 100 µM (inactive) | > 100 µM (inactive) | > 100 µM (inactive) | > 100 µM (inactive) | > 100 µM (inactive) | > 100 µM (inactive) | > 100 µM (inactive) | > 100 µM (inactive) | > 100 µM (inactive) | > 100 µM (inactive) |  | > 100 µM (inactive) | > 100 µM (inactive) | > 100 µM (inactive) | > 100 µM (inactive) |
| COc1cc([C@@H]2c3cc4c(cc3[C@@H](NC(=O)c3cccc([N+](=O)[O-])c3)C3COC(=O)[C@@H]32)OCO4)cc(OC)c1O (stereo partly specified) | 1.31 µM (inactive) | 1.47 µM (inactive) | 1.7 µM (inactive) | 0.245 µM (active) | 2.2 µM (inactive) | 0.128 µM (active) | 0.621 µM (active) | 0.294 µM (active) | 3.89 µM (inactive) | 0.0442 µM (active) | 2.77 µM (inactive) | 0.509 µM (active) | 10.5 µM (inactive) | 0.0398 µM (active) | 0.0376 µM (active) | 0.452 µM (active) | 0.329 µM (active) | 3.27 µM (inactive) |
| COc1ccc(C(=O)C(c2ccc(OC)cc2)C2OC(=O)C(Cl)=C2Cl)cc1 (stereo unspecified) |  | > 100 µM (inactive) | > 100 µM (inactive) | > 100 µM (inactive) | > 100 µM (inactive) | > 100 µM (inactive) | > 100 µM (inactive) | > 100 µM (inactive) | > 100 µM (inactive) | > 100 µM (inactive) | > 100 µM (inactive) | > 100 µM (inactive) | > 100 µM (inactive) | > 100 µM (inactive) | > 100 µM (inactive) | > 100 µM (inactive) | > 100 µM (inactive) | > 100 µM (inactive) |
| O/N=C/c1cc2c(cc1Br)OCO2 | > 100 µM (inactive) | > 100 µM (inactive) | > 100 µM (inactive) | > 100 µM (inactive) | > 100 µM (inactive) | > 100 µM (inactive) | > 100 µM (inactive) | > 100 µM (inactive) | > 100 µM (inactive) | > 100 µM (inactive) | > 100 µM (inactive) | > 100 µM (inactive) | > 100 µM (inactive) | > 100 µM (inactive) | > 100 µM (inactive) | > 100 µM (inactive) | > 100 µM (inactive) |  |
| OCC(O)C(OC1OC(CO)C(O)C(O)C1O)c1nn(-c2ccc(Cl)cc2)c2nc3cc(Cl)c(Cl)cc3nc12 (stereo unspecified) | > 100 µM (inactive) | > 100 µM (inactive) | > 100 µM (inactive) | > 100 µM (inactive) | > 100 µM (inactive) | > 100 µM (inactive) | > 100 µM (inactive) | > 100 µM (inactive) | > 100 µM (inactive) |  |  |  | > 100 µM (inactive) | > 100 µM (inactive) | > 100 µM (inactive) | > 100 µM (inactive) | > 100 µM (inactive) | > 100 µM (inactive) |
| C[C@]12CCC(=O)C=C1CC[C@@H]1C2CC[C@@]2(C)C1CC[C@@H]2OC(=O)C12OC1CCC2=O (stereo partly specified) | 16.7 µM (inactive) | 18.7 µM (inactive) | 18.9 µM (inactive) | 16.7 µM (inactive) | 24.4 µM (inactive) | 15.6 µM (inactive) | 18.5 µM (inactive) | 20.3 µM (inactive) | 16.5 µM (inactive) | 25 µM (inactive) | 15.2 µM (inactive) | 16.9 µM (inactive) | 21.6 µM (inactive) | 30.7 µM (inactive) | 12.2 µM (inactive) | 20.9 µM (inactive) | 41.7 µM (inactive) | 17.4 µM (inactive) |
| Clc1ccc(OCCSCCCCCCCCCCSCCOc2ccc(Cl)cc2)cc1 | > 100 µM (inactive) | > 100 µM (inactive) | > 100 µM (inactive) | > 100 µM (inactive) | > 100 µM (inactive) | > 100 µM (inactive) |  | > 100 µM (inactive) | > 100 µM (inactive) | > 100 µM (inactive) | > 100 µM (inactive) | > 100 µM (inactive) |  | > 100 µM (inactive) | > 100 µM (inactive) | > 100 µM (inactive) | > 100 µM (inactive) | > 100 µM (inactive) |
| COC(=O)C12C3C4C1C1C2C3C41C(=O)OC(C)(C)C (stereo unspecified) | > 100 µM (inactive) | > 100 µM (inactive) | > 100 µM (inactive) | > 100 µM (inactive) | > 70.1 µM (inactive) | > 100 µM (inactive) | > 100 µM (inactive) | > 100 µM (inactive) | > 100 µM (inactive) | > 64.3 µM (inactive) | > 100 µM (inactive) | > 36.2 µM (inactive) | > 100 µM (inactive) | > 100 µM (inactive) | > 71.3 µM (inactive) | > 49.2 µM (inactive) | > 100 µM (inactive) | > 100 µM (inactive) |
| COC(=O)C(C(=O)C(=O)Nc1cccc(O)c1)c1nc2ccc(Cl)cc2nc1O (stereo unspecified) | 84.1 µM (inactive) | > 100 µM (inactive) | > 100 µM (inactive) | > 100 µM (inactive) | > 100 µM (inactive) | > 100 µM (inactive) | > 100 µM (inactive) | > 100 µM (inactive) | > 100 µM (inactive) | > 100 µM (inactive) | > 100 µM (inactive) | > 100 µM (inactive) | > 100 µM (inactive) | > 100 µM (inactive) | > 100 µM (inactive) | > 100 µM (inactive) | > 100 µM (inactive) | > 100 µM (inactive) |
| Cc1cc2c(=O)cc(-c3ccc(C(F)(F)F)cc3)oc2c(C(=O)O)c1C | > 100 µM (inactive) | > 100 µM (inactive) | > 100 µM (inactive) | > 100 µM (inactive) | > 100 µM (inactive) | > 100 µM (inactive) | > 100 µM (inactive) | > 100 µM (inactive) | > 100 µM (inactive) | > 100 µM (inactive) | > 100 µM (inactive) | > 100 µM (inactive) | > 100 µM (inactive) |  | > 100 µM (inactive) | > 100 µM (inactive) | > 100 µM (inactive) | > 100 µM (inactive) |
| O=S(=O)(O)C1=C2Sc3ccccc3N=C2c2ccccc2C1 | 18.5 µM (inactive) | 15.8 µM (inactive) | 20.3 µM (inactive) | 13.8 µM (inactive) | 10.5 µM (inactive) | 12.5 µM (inactive) | 12.7 µM (inactive) | 11.9 µM (inactive) | 19.4 µM (inactive) | 16.2 µM (inactive) | 14.6 µM (inactive) | 15.3 µM (inactive) | 16.8 µM (inactive) | 20.1 µM (inactive) | 3.43 µM (inactive) | 7.48 µM (inactive) | 29.2 µM (inactive) | 17.3 µM (inactive) |
| c1ccc(C2[C@@H]3CCCc4ccccc4C3=NN2c2ccccc2)cc1 (stereo partly specified) |  | > 100 µM (inactive) | 61.7 µM (inactive) | > 100 µM (inactive) | 32.7 µM (inactive) | > 100 µM (inactive) |  |  | > 100 µM (inactive) | > 100 µM (inactive) |  | > 100 µM (inactive) | 49.5 µM (inactive) | > 100 µM (inactive) | 87.7 µM (inactive) | 40.7 µM (inactive) |  | > 100 µM (inactive) |
| Oc1cc(-c2ccccn2)nc2ccc(Cl)cc12 | 18.8 µM (inactive) | 24 µM (inactive) | 33 µM (inactive) |  | 12.8 µM (inactive) | 58.6 µM (inactive) | 36.9 µM (inactive) | 31.8 µM (inactive) | 36.1 µM (inactive) |  |  | 19.8 µM (inactive) | 47.1 µM (inactive) | 40.3 µM (inactive) | 36.5 µM (inactive) | 18.2 µM (inactive) | 36 µM (inactive) | 34.8 µM (inactive) |
